This passage reports Ki and Ratio Ki results from ChEMBL document CHEMBL3112412, “Synthesis and receptor binding studies of some new arylcarboxamide derivatives as sigma-1 ligands” (Bioorg Med Chem Lett, 2014).

In experiment [1] the target is Sigma non-opioid intracellular receptor 1 (Rattus norvegicus, UniProt Q9R0C9). Description: Displacement of [3H](+)-pentazocine from sigma 1 receptor in rat liver homogenate after 120 mins by liquid scintillation counting. It is filed as tissue-based.
Experiment [2] can be described thus: Displacement of [3H]-DTG from sigma 2 receptor in guinea pig brain after 120 mins by liquid scintillation counting. On the set-up: species or system Cavia porcellus.
Experiment [3] in a line: Selectivity ratio of Ki for sigma 2 receptor in guinea pig brain to Ki for sigma 1 receptor in rat liver homogenate. Type of experiment: tissue-based.

Sigma non-opioid intracellular receptor 1, sequence (Q9R0C9 whole entry): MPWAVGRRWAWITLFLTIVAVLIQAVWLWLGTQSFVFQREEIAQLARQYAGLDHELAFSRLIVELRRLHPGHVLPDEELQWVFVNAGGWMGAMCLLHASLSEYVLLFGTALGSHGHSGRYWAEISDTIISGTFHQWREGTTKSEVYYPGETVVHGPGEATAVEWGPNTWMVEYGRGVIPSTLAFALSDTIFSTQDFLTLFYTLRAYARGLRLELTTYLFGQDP

As for `CCN(CC1CCN(Cc2ccccc2)CC1)C(=O)c1cccc2ccccc12`, the Ki – broadly, a measure of affinity in units of concentration, obtained from inhibition or displacement – in experiment [1] was 161 nM; in experiment [2] it was greater than 1000 nM. Moreover, the Ratio Ki in experiment [3] is greater than 6.

In the case of `CCN(CC1CCN(Cc2ccccc2)CC1)C(=O)c1ccc(-c2ccccc2)cc1`, the Ki is 301 nM in experiment [1] and greater than 500 nM in experiment [2]. For the same compound, the Ratio Ki in experiment [3] was greater than 1.

Turning to `CCN(CC1CCN(Cc2ccccc2)CC1)C(=O)c1ccc(C)cc1`, the inhibition constant Ki in experiment [1] is 160 nM; in experiment [2], greater than 500 nM. Further, the Ratio Ki in experiment [3] was greater than 3.

Take `CCN(CC1CCN(Cc2ccc(Cl)cc2)CC1)C(=O)c1cccc2ccccc12`: the inhibition constant (Ki) in experiment [1] was 215 nM; in experiment [2], greater than 1000 nM. In addition, the Ratio Ki in experiment [3] was greater than 4.

Regarding `CCN(CC1CCN(Cc2ccc(Cl)cc2)CC1)C(=O)c1ccc(Cl)cc1`, the Ki in experiment [1] was 91 nM; in experiment [2] it was greater than 1000 nM. In experiment [3], the Ratio Ki is greater than 11.

Take `CCN(CC1CCN(Cc2ccc(Cl)cc2)CC1)C(=O)c1ccco1`: the Ki in experiment [1] is 13.6 nM; in experiment [2], greater than 500 nM. The Ratio Ki in experiment [3] is greater than 40.

For `CCN(CC1CCN(Cc2ccc(Cl)cc2)CC1)C(=O)c1ccc2ccccc2c1`, the affinity in experiment [1] corresponds to a Ki of 225 nM.

For `CCN(CC1CCN(Cc2ccccc2)CC1)C(=O)c1ccco1`, the Ki in experiment [1] is 21.2 nM; in experiment [2], greater than 3000 nM. In experiment [3], the Ratio Ki is greater than 140.

Consider `CCN(CC1CCN(Cc2ccccc2)CC1)C(=O)c1ccc(Cl)cc1`, for which the inhibition constant Ki is 59.1 nM in experiment [1] and greater than 1000 nM in experiment [2]. For the same compound, the Ratio Ki in experiment [3] is greater than 17.

`CCN(CC1CCN(Cc2ccc(Cl)cc2)CC1)C(=O)c1ccccc1` yielded a Ki in experiment [1] of 155 nM. This lies in the sub-micromolar range.

On to `CCN(CC1CCN(Cc2ccc(Cl)cc2)CC1)C(=O)c1ccc(C)cc1`, for which the inhibitory constant (Ki) in experiment [1] is 140 nM; in experiment [2], greater than 500 nM. Moreover, the Ratio Ki in experiment [3] is greater than 3.

With `CCN(CC1CCN(Cc2ccc(Cl)cc2)CC1)C(=O)c1ccc(OC)cc1`, the Ki turned out to be 217 nM in experiment [1] and 283 nM in experiment [2]. Besides, in experiment [3], the Ratio Ki came out at 1.3.

The compound `CCN(CC1CCN(Cc2ccccc2)CC1)C(=O)c1ccccc1` showed an inhibition constant (Ki) in experiment [1] of 66.8 nM.

Take `CCN(CC1CCN(Cc2ccc(Cl)cc2)CC1)C(=O)c1ccc(-c2ccccc2)cc1`: the affinity in experiment [1] corresponds to a Ki of 373 nM.

Take `CCN(CC1CCN(Cc2ccccc2)CC1)C(=O)c1ccc2ccccc2c1`: the inhibition constant Ki in experiment [1] came out at 198 nM; in experiment [2] it was 270 nM. In addition, in experiment [3], the Ratio Ki came out at 1.36.

On to `CCN(CC1CCN(Cc2ccccc2)CC1)C(=O)c1ccc(OC)cc1`, for which, in experiment [1], the inhibition constant (Ki) came out at 192 nM.
